# Test results taken from patent US20030100757A1, “2-(4-aryl or heteroaryl-piperazin-1-ylmethyl)-1H-indole derivatives interacting with the dopamine D4 receptor” (Pfizer Inc., priority 2001, published 2003).
row,SMILES,melting point
1,"O=C(c1cc2cc(F)ccc2[nH]1)N1CCN(c2ccccc2[N+](=O)[O-])CC1 [Example 7, (5-Fluoro-1H-indol-2-yl)-[4-(2-nitro-phenyl)-piperazin-1-yl]-methanone]",184 to 188 °C
2,"c1ccc2[nH]c(CN3CCN(c4nsc5ccccc45)CC3)cc2c1 [Example 9, 3-[4-(1H-Indol-2-ylmethyl)-piperazin-1-yl]-benzo[d]isothiazole]",150 to 152 °C
3,"c1ccc2[nH]c(CN3CCN(c4cccc5ccccc45)CC3)cc2c1 [Example 11, 2-(4-Naphthalen-1-yl-piperazin-1-ylmethyl)-1H-indole]",238 to 239 °C
4,"O=[N+]([O-])c1ccccc1N1CCN(Cc2cc3ccccc3[nH]2)CC1 [Example 12, 2-[4-(2-Nitro-phenyl)-piperazin-1-ylmethyl]-1H-indole]",210 to 211 °C
5,"Fc1ccc2[nH]c(CN3CCN(c4ncccn4)CC3)cc2c1 [Example 17, 5-Fluoro-2-(4-pyrimidin-2-yl-piperazin-1-ylmethyl)-1H-indole]",199 °C
6,"O=C(c1cc2cc(F)ccc2[nH]1)N1CCN(c2ccccn2)CC1 [Example 18, (5-Fluoro-1H-indol-2-yl)-(4-pyridin-2-yl-piperazin-1-yl)-methanone]",214 to 218 °C

# More lines, now with the values ahead:
row,melting point,SMILES
1,188 to 190 °C,"Oc1ccc2[nH]c(CN3CCN(c4cccc(C(F)(F)F)c4)CC3)cc2c1 [Example 4, 2-[4-(3-Trifluoromethyl-phenyl)-piperazin-1-ylmethyl]-1H-indol-5-ol]"
2,192 to 194 °C,"FC(F)(F)c1cccc(N2CCN(Cc3cc4ccccc4[nH]3)CC2)c1 [Example 5, 2-[4-(3-Trifluoromethyl-phenyl)-piperazin-1-ylmethyl]-1 H-indole]"
3,198 °C,"O=C(c1cc2cc(F)ccc2[nH]1)N1CCN(c2cccc(C(F)(F)F)c2)CC1 [Example 8, (5-Fluoro-1H-indol-2-yl)-[4-(3-trifluoromethyl-phenyl)-piperazin-1-yl]-methanone]"
4,196 to 197 °C,"Fc1ccc2[nH]c(CN3CCN(c4cccc(C(F)(F)F)c4)CC3)cc2c1 [Example 10, 5-Fluoro-2-[4-(3-trifluoromethyl-phenyl)-piperazin-1-ylmethyl]-1H-indole]"
5,236 °C,"O=[N+]([O-])c1ccccc1N1CCN(Cc2cc3cc(F)ccc3[nH]2)CC1 [Example 13, 5-Fluoro-2-[4-(2-nitro-phenyl)-piperazin-1-ylmethyl]-1H-indole]"
6,249 to 250 °C,"Fc1ccc2[nH]c(CN3CCN(c4cccc5ccccc45)CC3)cc2c1 [Example 14, 5-Fluoro-2-(4-naphthalen-1-yl-piperazin-1-ylmethyl)-1H-indole]"
